Laboratory results as given in publication PMC9814838, “The orphan nuclear receptor Nurr1 is responsive to non-steroidal anti-inflammatory drugs” (Communications Chemistry, 2020).
“Also recorded” adds a separate entry of the source.

What was measured:
Nurr1 [1] = target: T1, Nurr1 (Homo sapiens, UniProt P43354); assay: Gal4-Nurr1 hybrid reporter gene assay in HEK293T cells; format: cell-based; conditions: HEK293T; mean ± SD; n≥3
T1 construct: Nurr1 (uniprot entry: hNURR1–P43354, residues 360–598); expressed in transfected cells; host or cells: HEK293T

NBRE: Nurr1 monomer = target: T2, NBRE: Nurr1 monomer (Homo sapiens, UniProt P43354); assay: Full-length Nurr1 reporter gene assay on NBRE response element; format: cell-based; conditions: full-length human Nurr1; HEK293T; mean ± SD
T2 construct: the activity of full-length human Nurr1 in cellular settings; host or cells: HEK293T

NurRE: Nurr1 homodimer = target: T3, NurRE: Nurr1 homodimer (Homo sapiens, UniProt P43354); assay: Full-length Nurr1 reporter gene assay on NurRE response element; format: cell-based; conditions: full-length human Nurr1; HEK293T; mean ± SD
T3 construct: the activity of full-length human Nurr1 in cellular settings; host or cells: HEK293T

[2] = target: T4, DR5: Nurr1–RXRα heterodimer (Homo sapiens, UniProt P43354); assay: Full-length Nurr1 reporter gene assay on DR5 response element; format: cell-based; conditions: full-length human Nurr1 and RXRα overexpressed; HEK293T; mean ± SD
T4 construct: the activity of full-length human Nurr1 in cellular settings; host or cells: HEK293T

Nurr1 LBD homodimer = target: T5, Nurr1 LBD homodimer (Homo sapiens, UniProt P43354); assay: Nurr1 homodimerization HTRF (GFP-Nurr1 LBD vs Tb-labeled Nurr1 LBD); format: biochemical; conditions: cell-free; ligand 100 µM
T5 construct: Nurr1 (uniprot entry: P43354-1, residues 364–598); MBP-Asn10 linker (N, cleaved yes); His8-Tag (N, cleaved yes); His10-Tag (N, cleaved yes); made in house; host or cells: E. coli T7 express (with pGro7)
Method: Strength and modulation of the formation of the heterodimer composed of the LBDs of Nurr1 and RXRα was investigated by titration of GFP-RXRα LBD against a fixed concentration of Nurr1 LBD. Assay solutions were prepared in HTRF assay buffer supplemented with 0.1% (w/v) CHAPS as well as 1% DMSO with test compounds at 100 µM or DMSO alone as negative control. […] Free GFP was added to keep the total GFP content stable at 4 µM throughout the entire series in order to suppress artefacts from changes in degree of diffusion enhanced FRET. Samples were equilibrated at RT for 2 h before FI520 and FI620 were recorded after excitation at 340 nm, and the HTRF signal was calculated as described above.

Nurr1–NCoR-1 interaction = target: T6, Nurr1–NCoR-1 interaction (Homo sapiens, UniProt P43354); assay: Nurr1–NCoR-1 interaction HTRF (GFP-Nurr1 LBD titrated against Tb-labeled NCoR-1); format: biochemical; conditions: cell-free; ligand fixed at 100 µM
T6 construct: Nurr1 (uniprot entry: P43354-1, residues 364–598); His10-Tag (N, cleaved yes); made in house; host or cells: E. coli T7 express (with pGro7)
Method: Since ligand concentration was fixed in this setting, interference with the HTRF system is less prone to generate potential artifacts.
To maintain a constant GFP concentration, free GFP protein was added to the dilution series. The experiments were performed in HTRF assay buffer (150 mM KF, 25 mM HEPES pH 7.5 (KOH), 5% (w/v) Glycerol, supplemented with 0.1% (w/v) CHAPS and 5 mM DTT) with 1% DMSO in an assay volume of 20 µl. After 1 h incubation at RT, fluorescence intensities after excitation at 340 nm were recorded at 520 nm for GFP acceptor fluorescence and 620 nm for Tb-SA donor fluorescence and the HTRF signal was calculated as described above.

Nurr1 [3] = test system: Nurr1; parameters: method as in PMID 26124091; conditions: cited from earlier work
NOR1 = target: T7, NOR1 (Homo sapiens, UniProt Q92570); assay: Gal4-NOR1 hybrid reporter gene assay in HEK293T cells; format: cell-based; conditions: compared to 0.1% DMSO; mean ± SD
T7 construct: NOR1 (isoform alpha; uniprot entry: hNOR1–Q92570-1, residues 393–626); expressed in transfected cells; host or cells: HEK293T
T7 sequence (Q92570 393-626): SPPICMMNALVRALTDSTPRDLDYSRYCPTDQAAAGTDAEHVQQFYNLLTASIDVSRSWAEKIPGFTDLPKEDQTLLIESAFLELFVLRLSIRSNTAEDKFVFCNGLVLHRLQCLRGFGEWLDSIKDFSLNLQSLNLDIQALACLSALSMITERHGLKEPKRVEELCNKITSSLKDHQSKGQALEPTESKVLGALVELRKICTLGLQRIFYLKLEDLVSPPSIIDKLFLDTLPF

Gal4-VP16 = target: T8, Gal4-VP16 (Human herpesvirus 1, UniProt P06492); format: cell-based; conditions: n ≥ 4
T8 construct: host or cells: HEK293T

RXRα = target: T9, RXRα (Homo sapiens, UniProt P19793); assay: Gal4-RXRα hybrid reporter gene assay (selectivity); format: cell-based; conditions: selectivity profiling; also described previously
T9 construct: expressed in transfected cells; host or cells: HEK293T
T9 sequence (P19793 227-458 limits assumed): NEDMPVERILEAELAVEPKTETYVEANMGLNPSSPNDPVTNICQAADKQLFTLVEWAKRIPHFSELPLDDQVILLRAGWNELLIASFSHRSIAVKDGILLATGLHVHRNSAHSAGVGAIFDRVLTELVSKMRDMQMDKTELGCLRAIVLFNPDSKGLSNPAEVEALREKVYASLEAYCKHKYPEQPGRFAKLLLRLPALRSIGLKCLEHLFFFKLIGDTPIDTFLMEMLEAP

GFP-RXRα LBD = target: T10, GFP-RXRα LBD (human, UniProt P19793-1 226-462); assay: AlphaScreen or HTRF; Nurr1-RXR heterodimerization: GFP-RXRα LBD titrated from 4 µM (dilution factor 0.7) against biotinylated Nurr1 LBD 0.375 nM on Tb-SA 0.75 nM; free GFP added to keep total GFP at 4 µM; HTRF assay buffer with 0.1% CHAPS; 1% DMSO alone or with AQ, CQ, MFA, parecoxib or oxaprozin at 100 µM; 2 h at RT; conditions: both partners purified
T10 construct: Superfolder GFP is the FRET acceptor; a BamHI site lies between GFP and the LBD; also called GFP-labeled RXRα LBD; source: E. coli T7 express with pGro7, purified (IMAC, TEV cleavage, reverse IMAC, SEC); not shown: His10, N-terminal, cleaved; superfolder GFP, N-terminal, kept
T10 sequence (looked up): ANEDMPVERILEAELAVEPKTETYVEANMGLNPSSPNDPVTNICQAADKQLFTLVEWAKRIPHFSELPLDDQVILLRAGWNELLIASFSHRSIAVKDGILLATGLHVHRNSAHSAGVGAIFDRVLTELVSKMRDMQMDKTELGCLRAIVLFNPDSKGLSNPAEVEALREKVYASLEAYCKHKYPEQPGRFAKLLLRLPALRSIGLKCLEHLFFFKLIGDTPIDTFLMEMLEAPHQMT

T1 sequence (P43354 360-598): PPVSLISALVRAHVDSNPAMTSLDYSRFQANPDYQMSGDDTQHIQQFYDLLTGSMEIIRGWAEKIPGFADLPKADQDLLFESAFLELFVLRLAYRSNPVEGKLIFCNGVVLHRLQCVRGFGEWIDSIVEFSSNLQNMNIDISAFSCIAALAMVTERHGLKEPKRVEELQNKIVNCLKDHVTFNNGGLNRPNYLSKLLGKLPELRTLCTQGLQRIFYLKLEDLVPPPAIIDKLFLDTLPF
T2 sequence (P43354 whole entry): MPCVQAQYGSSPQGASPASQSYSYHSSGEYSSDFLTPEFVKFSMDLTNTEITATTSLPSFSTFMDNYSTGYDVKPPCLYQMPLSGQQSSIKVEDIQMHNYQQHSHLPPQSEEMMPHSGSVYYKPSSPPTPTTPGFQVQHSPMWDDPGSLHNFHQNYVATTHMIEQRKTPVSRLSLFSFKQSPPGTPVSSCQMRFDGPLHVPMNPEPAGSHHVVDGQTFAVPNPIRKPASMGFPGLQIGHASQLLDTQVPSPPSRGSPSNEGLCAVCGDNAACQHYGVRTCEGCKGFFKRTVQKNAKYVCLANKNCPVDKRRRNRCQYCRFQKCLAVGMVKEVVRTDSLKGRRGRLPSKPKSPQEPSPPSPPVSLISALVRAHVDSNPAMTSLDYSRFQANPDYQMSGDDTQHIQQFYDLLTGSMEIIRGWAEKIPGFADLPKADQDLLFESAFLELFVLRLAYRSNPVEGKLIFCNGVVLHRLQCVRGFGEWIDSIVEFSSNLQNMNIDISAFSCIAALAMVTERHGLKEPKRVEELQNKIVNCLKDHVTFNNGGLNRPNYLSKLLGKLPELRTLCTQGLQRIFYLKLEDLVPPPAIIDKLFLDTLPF
T3 sequence (P43354 whole entry): as above
T4 sequence (P43354 whole entry, one chain of several): as the sequence (P43354 whole entry) above

CCN(CC)Cc1cc(Nc2ccnc3cc(Cl)ccc23)ccc1O [AQ, amodiaquine]
EC50 (Nurr1 [1]): 36 µM | EC50 (NBRE: Nurr1 monomer): 92 µM | EC50 (NurRE: Nurr1 homodimer): 87 µM | EC50 [2]: 97 µM | Homodimerization (effect of ligand) (Nurr1 LBD homodimer): promoted homodimerization; also recorded: Promotes dimerization | NCoR-1 affinity (effect of ligand) (Nurr1–NCoR-1 interaction): promoted the Nurr1–NCoR-1 interaction; also recorded: Enhances affinity | Nurr1 activation efficacy (Nurr1 [3]): ~ 3 fold

O=C(O)CCc1nc(-c2ccccc2)c(-c2ccccc2)o1 [oxaprozin]
NOR1 min./max. activation (NOR1): ≥ 0.00 | Control experiments on Gal4-VP16 (non-specific reporter effects) (Gal4-VP16): no non-specific reporter suppression | RXR agonism (RXRα): weak RXR agonism

B1: biotinylated recombinant Nurr1 LBD (Tb-labeled through Tb-cryptate streptavidin) (domain or fragment, human, UniProt P43354-1 364-598, looked up)
chain: LISALVRAHVDSNPAMTSLDYSRFQANPDYQMSGDDTQHIQQFYDLLTGSMEIIRGWAEKIPGFADLPKADQDLLFESAFLELFVLRLAYRSNPVEGKLIFCNGVVLHRLQCVRGFGEWIDSIVEFSSNLQNMNIDISAFSCIAALAMVTERHGLKEPKRVEELQNKIVNCLKDHVTFNNGGLNRPNYLSKLLGKLPELRTLCTQGLQRIFYLKLEDLVPPPAIIDKLFLDTLPF
modifications: biotin on the lysine residue in the Avi-Tag
notes: In the assays coupled to terbium cryptate streptavidin conjugate (Tb-SA) as FRET donor; also called Tb-labeled Nurr1 LBD; Tb-cryptate-labeled Nurr1 LBD; source: E. coli T7 express with pGro7, purified (IMAC, TEV cleavage, amylose resin, birA biotinylation, monomeric avidin, SEC); not shown: MBP, N-terminal, cleaved; His8, N-terminal, cleaved; Avi-Tag, N-terminal, kept
binding result (GFP-RXRα LBD): binds
